Assay [1] deals with Staphylococcus aureus ATCC12600. Type of assay: cell-based. The procedure: Spontaneous resistance frequencies in Staphylococcus aureus were determined by plating defined numbers of cells of Staphylococcus aureus ATCC12600 (1×10^8-1×10^12 cfu/plate) on Mueller-Hinton agar containing rifampin, myxopyronin B, or both, and counting numbers of colonies after 14 h at 37° C. Experiments were performed using (a) rifampin at 1×, 2×, or 4× the minimum inhibitory concentration of rifampin administered individually; (b) myxopyronin B at lx, 2×, or 4× the minimum inhibitory concentration of myxopyronin B administered individually; or (c) both rifampin at 1×, 2×, or 4× the minimum inhibitory concentration of rifampin administered individually and myxopyronin B at 1×, 2×, or 4× the minimum inhibitory concentration of myxopyronin B administered individually. All experiments were performed four times, using four different starting cultures.

Assay [2] has as its system Escherichia coli D21f2tolC. Type of assay: cell-based. Particulars: 2xMIC; for resistance rate per generation: MSS-MLE. The procedure: Spontaneous resistance frequencies in Escherichia coli were determined by plating defined numbers of cells of Escherichia coli D21f2tolC (1×10^8-1×10^12 cfu/plate) on LB agar containing rifampin, myxopyronin B, or both, and counting numbers of colonies after 24 h at 37° C. Experiments were performed using (a) rifampin at 2× the minimum inhibitory concentration of rifampin administered individually; (b) myxopyronin B at 2× the minimum inhibitory concentration of myxopyronin B administered individually; or (c) both rifampin at 2× the minimum inhibitory concentration of rifampin administered individually and myxopyronin B at 2× the minimum inhibitory concentration of myxopyronin B administered individually. All experiments were performed at least five times, using at least five different starting cultures. Resistance rates and 95% confidence intervals were calculated using the Ma-Sandri-Sarkar Maximum Likelihood Estimator (MSS-MLE; [Ma, W, Sandri, GvH., Sarkar, S. (1992. ) J. Appl. Probab. 29, 255-267; Sarkar, S., Ma, W., Sandri, GvH. (1992) Genetica 85, 173-179]) as implemented on the Fluctuation Analysis Calculator (FALCOR; http://www.keshaysingh.org/protocols/FALCOR.html; [Hall, B., Ma, C., Liang, P., Singh, K (2009) Bioinformatics 25, 1564-1565]). Sampling correction was performed as in [Stewart, F., Gordon, D., Levin, B. (1990) Genetics 124, 175-185; Jones, M. (1993) Mutat. Res. 292, 187-189].

Read-outs that look alike come from different tables or passages of the source.

On to `CCCC/C(C)=C/C=C(\C)C(=O)c1c(O)cc([C@H](C)CC/C=C/NC(=O)OC)oc1=O` [myxopyronin B], for which the spontaneous resistance frequency was 4 × 10^−8 in assay [1] (1xMIC); 7 × 10^−8 in assay [1] (2xMIC); 7 × 10^−8 in assay [1] (4xMIC); 6×10^−8 in assay [1] (mean of 1x, 2x, 4xMIC); 8×10^−10 in assay [2]. Also, the “resistance rate per generation” value in assay [2] is 3×10^−10 per generation.
For the compound `CCc1c(Cl)c(O)c(Cl)c(O)c1C(=O)O[C@H]1[C@H](O)[C@H](OC)[C@H](OC/C2=C\C=C\C[C@H](O)/C(C)=C/[C@H](CC)[C@@H](O[C@@H]3OC(C)(C)[C@@H](OC(=O)C(C)C)[C@H](O)[C@@H]3O)/C(C)=C/C(C)=C/C[C@@H]([C@@H](C)O)OC2=O)O[C@@H]1C` [lipiarmycin A3], the spontaneous resistance frequency in assay [1] (2xMIC) was 3×10^−8.
In the case of `CO[C@H]1/C=C/O[C@@]2(C)Oc3c(C)c(O)c4c(O)c(c(/C=N/N5CCN(C)CC5)c(O)c4c3C2=O)NC(=O)/C(C)=C\C=C\[C@H](C)[C@H](O)[C@@H](C)[C@@H](O)[C@@H](C)[C@H](OC(C)=O)[C@@H]1C` [rifampin], the spontaneous resistance frequency is on record as 5 × 10^−8 in assay [1] (1xMIC); 6×10^−8 in assay [1] (2xMIC); 6 × 10^−8 in assay [1] (4xMIC); 6×10^−8 in assay [1] (mean of 1x, 2x, 4xMIC); 4×10^−9 in assay [2]. In assay [2], the “resistance rate per generation” value is given as 1×10^−9 per generation.

Values taken from patent US9839634B2 (priority 2012, dated 2017).
